Test results taken from patent publication US20100022483A1, “Substituted Tetracycline Compounds” (Paratek Pharmaceuticals, Inc., priority 2008, published 2010).
≈ marks a conversion by molar mass, not a printed value. Read-outs that look alike come from different tables or passages of the source.

Legend:
in vitro = assay type: cell-based; settings: Chinese hamster, Cytotox. CHO-K1
[1] = Mammalian cytotoxicity assay (resazurin), COS-1 cells; assay type: cell-based; settings: African green monkey, read-out: Cytotox. COS-1
Procedure, shortened: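 Cells seeded overnight at 37° C., 5% CO2, then exposed to serial compound dilutions for 24 hours. Medium replaced with resazurin (0.042 mg/ml in PBS with Ca and Mg) for 2 hours plus 30 minutes dark at room temperature; fluorescence read at ex 535/em 590 nm, IC50 taken as 50% growth inhibition.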

gram positive bacteria = experiment: In vitro anti-bacterial activity assay (broth dilution MIC), gram positive bacteria; assay type: cell-based, S. aureus; settings: 18 h
Procedure, shortened: (§1)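 Broth dilution MIC following CLSI M7-A2: compounds serially diluted, log-phase test strains added to final ~5×10^5 CFU/ml, incubated ~18 hours at 35° C in ambient air. Plates read on microplate reader or visually; MIC is lowest concentration inhibiting growth.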

gram negative bacteria = experiment: In vitro anti-bacterial activity assay (broth dilution MIC), gram negative bacteria; assay type: cell-based, E. coli
Procedure, shortened: as §1

3T3 fibroblast cells = experiment: In vitro phototoxicity assay (neutral red; UV light-treated vs dark control plates); assay type: cell-based; settings: for Photo Toxicity UV Tox50: UV light 50 minutes; for Photo Toxicity Dark Tox50: dark control plate
Procedure, shortened: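 Neutral red viability readout (A535 after EtOH/acetic acid extraction) compares paired plates: one exposed 50 min to UV at 1.6–1.8 mW/cm^2, one held in darkness, both dosed with compound in HBSS and recovered overnight. 3T3 fibroblast cells used; phototoxicity taken as the difference.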

[2] = Staphylococcus aureus, S. aureus MRSA5, read-out: Median MIC's G+ S. aureus MRSA5
[3] = Staphylococcus aureus, S. aureus RN450, read-out: Median MIC's G+ S. aureus RN450
[4] = Streptococcus pneumoniae, S. pneumoniae 157E-Strep, read-out: Median MIC's G+ S. pneumoniae 157E-Strep
[5] = Escherichia coli, 18 h, E. coli D1 209, read-out: Median MIC's G− E. coli D1 209
[6] = Escherichia coli, 18 h, E. coli MG 1655, read-out: Median MIC's G− E. coli MG 1655
[7] = Escherichia coli, ATCC25922, 18 h, E. coli ATCC 25922, read-out: Median MIC's G− E. coli ATCC 25922
[8] = Pseudomonas aeruginosa, 18 h, P. aeruginosa K201 PAO6609, read-out: Median MIC's G− P. aeruginosa K201 PAO6609

Compound	IC50 at 24 h (in vitro) [µM]	IC50 at 24 h [1] [µM]	MIC (gram positive bacteria; [2]) [µg/mL]	MIC (gram positive bacteria; [3]) [µg/mL]	MIC (gram positive bacteria; [4]) [µg/mL]	MIC (gram negative bacteria; Escherichia coli, 18 h, read-out: Median MIC's G− E. coli D1 209, E. coli D1 209) [µg/mL]	MIC (gram negative bacteria; Escherichia coli, 18 h, read-out: Median MIC's G− E. coli MG 1655, E. coli MG 1655) [µg/mL]	MIC (gram negative bacteria; Escherichia coli, ATCC25922, 18 h, read-out: Median MIC's G− E. coli ATCC 25922, E. coli ATCC 25922) [µg/mL]	MIC (gram negative bacteria; Pseudomonas aeruginosa, 18 h, read-out: Median MIC's G− P. aeruginosa K201 PAO6609, P. aeruginosa K201 PAO6609) [µg/mL]	Photo Toxicity UV Tox50 (3T3 fibroblast cells) [µM]	Photo Toxicity Dark Tox50 (3T3 fibroblast cells) [µM]	MIC (gram negative bacteria; [5]) [µg/mL]	MIC (gram negative bacteria; [6]) [µg/mL]	MIC (gram negative bacteria; [7]) [µg/mL]	MIC (gram negative bacteria; [8]) [µg/mL]	MIC (gram positive bacteria; Staphylococcus aureus, read-out: Median MIC's G+ S. aureus MRSA5) [µg/mL]	MIC (gram positive bacteria; Staphylococcus aureus, read-out: Median MIC's G+ S. aureus RN450) [µg/mL]	MIC (gram positive bacteria; Streptococcus pneumoniae, read-out: Median MIC's G+ S. pneumoniae 157E-Strep) [µg/mL]
CN(C)CCN(C)C(=O)c1cccc(-c2ccc(O)c3c2C[C@H]2C[C@H]4[C@H](N(C)C)C(O)=C(C(N)=O)C(=O)[C@@]4(O)C(O)=C2C3=O)c1 [R]	> 137	> 137	64 (≈ 103 µM)	0.5 (≈ 0.808 µM)	0.25 (≈ 0.404 µM)	64 (≈ 103 µM)	15 (≈ 24.2 µM)	32 (≈ 51.7 µM)	64 (≈ 103 µM)	>137.36	>137.36							
CN(C)CCNC(=O)c1cccc(-c2ccc(O)c3c2C[C@H]2C[C@H]4CC(O)=C(C(N)=O)C(=O)[C@@]4(O)C(O)=C2C3=O)c1 [Z, (4aS,5aR,12aS)-7-[3-(2-Dimethylamino-ethylcarbamoyl)-phenyl]-3,10,12,12a-tetrahydroxy-1,11-dioxo-1,4,4a,5,5a,6,11,12a-octahydro-naphthacene-2-carboxylic acid amide]	> 15.9	> 15.9	64 (≈ 114 µM)	64 (≈ 114 µM)	64 (≈ 114 µM)					>158.85	>158.85	64 (≈ 114 µM)	64 (≈ 114 µM)	64 (≈ 114 µM)	64 (≈ 114 µM)			
CC(=O)Nc1cccc(-c2ccc(O)c3c2C[C@H]2C[C@H]4[C@H](N(C)C)C(O)=C(C(N)=O)C(=O)[C@@]4(O)C(O)=C2C3=O)c1 [AO]	> 16.3	> 16.3	4 (≈ 7.31 µM)	0.06 (≈ 0.11 µM)	0.06 (≈ 0.11 µM)					>162.66	>162.66	64 (≈ 117 µM)	32 (≈ 58.4 µM)	4 (≈ 7.31 µM)	64 (≈ 117 µM)			
CN(C)CC(=O)Nc1cccc(-c2ccc(O)c3c2C[C@H]2C[C@H]4[C@H](N(C)C)C(O)=C(C(N)=O)C(=O)[C@@]4(O)C(O)=C2C3=O)c1 [K, (4S,4aS,5aR,12aS)-4-Dimethylamino-7-[3-(2-dimethylamino-acetylamino)-phenyl]-3,10,12,12a-tetrahydroxy-1,11-dioxo-1,4,4a,5,5a,6,11,12a-octahydro-naphthacene-2-carboxylic acid amide]	> 12.8	> 12.8	2 (≈ 3.39 µM)	0.06 (≈ 0.102 µM)	0.06 (≈ 0.102 µM)					>128.09	>128.09	2 (≈ 3.39 µM)	2 (≈ 3.39 µM)	1 (≈ 1.69 µM)	64 (≈ 108 µM)			
CN(C)[C@H]1C(O)=C(C(N)=O)C(=O)[C@@]2(O)C(O)=C3C(=O)c4c(O)ccc(-c5cccc(CCCN6CCCCC6)c5)c4C[C@H]3C[C@@H]12 [BN]	> 63	> 63	32 (≈ 52 µM)	4 (≈ 6.5 µM)	0.25 (≈ 0.406 µM)					33.41	>200	32 (≈ 52 µM)	32 (≈ 52 µM)	16 (≈ 26 µM)	64 (≈ 104 µM)			
CN(C)[C@@H]1C(O)=C(C(N)=O)C(=O)[C@@]2(O)C(O)=C3C(=O)c4c(O)ccc(-c5cccc(C(=O)NCC[N+](C)(C)C)c5)c4C[C@H]3C[C@@H]12 [DA]	> 1.23	> 1.23	64	4	32					>123.61	>123.61	64	64	64	64			
CN(C)CCCN(C)Cc1cccc(-c2ccc(O)c3c2C[C@H]2C[C@H]4[C@H](N(C)C)C(O)=C(C(N)=O)C(=O)[C@@]4(O)C(O)=C2C3=O)c1 [CU]	> 124	> 124	16 (≈ 25.9 µM)	0.5 (≈ 0.808 µM)	0.125 (≈ 0.202 µM)					>123.6	>123.6	32 (≈ 51.7 µM)	8 (≈ 12.9 µM)	8 (≈ 12.9 µM)	32 (≈ 51.7 µM)			
CC(C)N1CCN(CC(=O)c2ccc(O)c3c2C[C@H]2C[C@H]4[C@H](N(C)C)C(O)=C(C(N)=O)C(=O)[C@@]4(O)C(O)=C2C3=O)CC1 [BX]	> 130	> 130	4 (≈ 6.87 µM)	1 (≈ 1.72 µM)	0.5 (≈ 0.858 µM)					>130.05	>130.05	64 (≈ 110 µM)	8 (≈ 13.7 µM)	8 (≈ 13.7 µM)	64 (≈ 110 µM)			
CN(C)[C@@H]1C(O)=C(C(N)=O)C(=O)[C@@]2(O)C(O)=C3C(=O)c4c(O)ccc(-c5cccc(CCCN6CCCCC6)c5)c4C[C@H]3C[C@@H]12 [DI]	54.1	59.4	2 (≈ 3.25 µM)	0.0625 (≈ 0.102 µM)	0.06 (≈ 0.0974 µM)					45.65	>200	2 (≈ 3.25 µM)	4 (≈ 6.5 µM)	1 (≈ 1.62 µM)	64 (≈ 104 µM)			
COCCCOCCN(C)Cc1cccc(-c2ccc(O)c3c2C[C@H]2C[C@H]4[C@H](N(C)C)C(O)=C(C(N)=O)C(=O)[C@@]4(O)C(O)=C2C3=O)c1 [DE]	> 20	> 20	2 (≈ 3.08 µM)	0.06 (≈ 0.0923 µM)	0.06 (≈ 0.0923 µM)					>200	>200	2 (≈ 3.08 µM)	8 (≈ 12.3 µM)	2 (≈ 3.08 µM)	64 (≈ 98.5 µM)			
CCCCNC(=O)c1cccc(-c2ccc(O)c3c2C[C@H]2C[C@H]4[C@H](N(C)C)C(O)=C(C(N)=O)C(=O)[C@@]4(O)C(O)=C2C3=O)c1 [F]	> 15.2	15.2								>151.73	>151.73	64 (≈ 109 µM)	64 (≈ 109 µM)	64 (≈ 109 µM)	64 (≈ 109 µM)	1 (≈ 1.7 µM)	0.06 (≈ 0.102 µM)	0.06 (≈ 0.102 µM)
CN(C)CC(=O)Nc1ccc(-c2ccc(O)c3c2C[C@H]2C[C@H]4[C@H](N(C)C)C(O)=C(C(N)=O)C(=O)[C@@]4(O)C(O)=C2C3=O)cc1 [BC]	> 13.6	> 13.6	2 (≈ 3.39 µM)	0.06 (≈ 0.102 µM)	0.06 (≈ 0.102 µM)					>135.63	>135.63	1 (≈ 1.69 µM)	2 (≈ 3.39 µM)	1 (≈ 1.69 µM)	64 (≈ 108 µM)			
CN(C)CC(=O)N1CC=C(c2ccc(O)c3c2C[C@H]2C[C@H]4[C@H](N(C)C)C(O)=C(C(N)=O)C(=O)[C@@]4(O)C(O)=C2C3=O)CC1 [AL]	> 145	> 145	32 (≈ 55.1 µM)	0.5 (≈ 0.861 µM)	0.5 (≈ 0.861 µM)					>145.35	>145.35	64 (≈ 110 µM)	16 (≈ 27.6 µM)	16 (≈ 27.6 µM)	64 (≈ 110 µM)			
CN(C)[C@@H]1C(O)=C(C(N)=O)C(=O)[C@@]2(O)C(O)=C3C(=O)c4c(O)ccc(C(=O)CNCC(F)(F)F)c4C[C@H]3C[C@@H]12 [BT]	> 47	> 47	2 (≈ 3.61 µM)	0.06 (≈ 0.108 µM)	0.06 (≈ 0.108 µM)					>151.65	>151.65	64 (≈ 116 µM)	8 (≈ 14.5 µM)	2 (≈ 3.61 µM)	64 (≈ 116 µM)			
CC1CCN(CC(=O)c2ccc(O)c3c2C[C@H]2C[C@H]4[C@H](N(C)C)C(O)=C(C(N)=O)C(=O)[C@@]4(O)C(O)=C2C3=O)CC1 [BH, 7-[2-(4-methyl-piperidin-1-yl)acetyl]-Sancycline]	> 136	> 136	0.06 (≈ 0.108 µM)	0.06 (≈ 0.108 µM)	0.06 (≈ 0.108 µM)					>135.66	>135.66	0.25 (≈ 0.452 µM)	0.06 (≈ 0.108 µM)	0.06 (≈ 0.108 µM)	32 (≈ 57.8 µM)			
